Measurements from PMC9346611, “Impact of an Adenosine A2A Receptor Agonist and Antagonist on Binding of the Dopamine D2 Receptor Ligand [^11C]raclopride in the Rodent Striatum” (Molecular Pharmaceutics, 2022).
Where two headings read alike, the source gives them in different places. Marks after values point to notes of the source that are not given here.

Legend:
D2R [1] = test system: D2R; set-up: method as in PMID 26100888; settings: transiently transfected CHO cells; cited from earlier work
D2R/D3R = test system: D2R/D3R; set-up: method as in PMID 25871974; settings: human, oral 300 mg; cited from earlier work
dopamine D2 receptor = settings: 1 mg/kg
Procedure: Pretreatment of animals with a high dose of a specific (nonradioactive) receptor ligand is the standard method used in PET imaging to assess whether a PET tracer binds to its intended target. […] Only one PET scan was made in animals subjected to arterial blood sampling.
Blood samples with a volume of 0.10–0.13 mL were drawn from the femoral artery at 10, 20, 30, 40, 50, 60, and 90 s and 2, 3, 5, 7.5, 10, 15, 30, and 60 min after tracer administration. After the collection of each sample, an equal volume of saline with 1% heparin was infused into the artery to compensate for the blood volume loss. Larger blood samples (0.8–1 mL) were drawn at 5, 10, 30, and 60 min for [^11C]raclopride metabolite analysis. From each blood sample, a plasma sample was obtained by the centrifugation of whole blood for 5 min at 3000 g.

[2] = cited from earlier work
dopamine D2/D3 receptors = target: dopamine D2/D3 receptors; set-up: method as in PMID 2528555; settings: cited from earlier work
[3] = Heart rate monitoring with pulse oximeters during PET scan; format: in vivo; settings: 1 mg/kg, persisted throughout the scan
dopamine D2R = test system: dopamine D2R; set-up: method as in PMID 1678519; settings: rat striatal membrane preparations; cited from earlier work
human D2R = test system: human D2R; set-up: method as in PMID 8982704, PMID 10617149; settings: SH-SY5Y cells; cited from earlier work
D2R [4] = settings: CHO cells co-transfected with A2AR and D2R; cited from earlier work
D2R [5] = test system: D2R; set-up: method as in PMID 11435907; settings: rat brain slices, striatal area; cited from earlier work
D2R [6] = test system: D2R; set-up: method as in PMID 11435907; settings: human brain slices, striatal area; cited from earlier work
dopamine release [7] = test system: dopamine release; set-up: method as in PMID 10502311; settings: low doses 0.01–1 μM; cited from earlier work
dopamine release [8] = test system: dopamine release; set-up: method as in PMID 15525341; settings: locally administered 3, 10, 50, and 100 μM; cited from earlier work
[9] = set-up: method as in PMID 1684818; settings: cited from earlier work

| Structure (SMILES) | affinity of D2R for radioligands [^3H]quinpirole and [^3H]raclopride (D2R [1]) | k3, accumbens (2TCM) (dopamine D2 receptor) | k3, caudate-putamen (2TCM) (dopamine D2 receptor) | k3, cerebellum (2TCM) (dopamine D2 receptor) | k3, globus pallidus (2TCM) (dopamine D2 receptor) | k3, striatum (2TCM) (dopamine D2 receptor) | k3/k4, accumbens (2TCM) (dopamine D2 receptor) | k3/k4, caudate-putamen (2TCM) (dopamine D2 receptor) | k3/k4, cerebellum (2TCM) (dopamine D2 receptor) | k3/k4, globus pallidus (2TCM) (dopamine D2 receptor) | k4, accumbens (2TCM) (dopamine D2 receptor) | k4, caudate-putamen (2TCM) (dopamine D2 receptor) | k4, cerebellum (2TCM) (dopamine D2 receptor) | k4, globus pallidus (2TCM) (dopamine D2 receptor) | k4, striatum (2TCM) (dopamine D2 receptor) | also measured |
| --- | --- | --- | --- | --- | --- | --- | --- | --- | --- | --- | --- | --- | --- | --- | --- | --- |
| Cn1c(=O)c2c(ncn2C)n(C)c1=O [caffeine] | reduces the affinity |  |  |  |  |  |  |  |  |  |  |  |  |  |  | increase of D2R/D3R availability in putamen and ventral striatum (D2R/D3R): 5–6% |
| CCn1c(=O)c2c(nc(/C=C/c3ccc(OC)c(OC)c3)n2C)n(CC)c1=O [KW6002, istradefylline] |  | 0.035 ± 0.015 min^–1 | 0.086 ± 0.027** min^–1 | 0.072 ± 0.028 min^–1 | 0.087 ± 0.028* min^–1 | 0.085 ± 0.027** min^–1 | 0.91 ± 0.27 | 2.02 ± 0.52 | 1.75 ± 0.52 | 1.86 ± 0.54 | 0.039 ± 0.013 min^–1 | 0.043 ± 0.012 min^–1 | 0.041 ± 0.011 min^–1 | 0.048 ± 0.013 min^–1 | 0.043 ± 0.011 min^–1 | k3/k4, striatum (2TCM) (dopamine D2 receptor): 2.00 ± 0.53; peripheral effects ([2]; rat, in vivo): does not have potent peripheral effects; tolerability after intraperitoneal administration ([2]; rats, doses up to 3 mg/kg): well tolerated |
| CCN1CCC[C@H]1CNC(=O)c1c(O)c(Cl)cc(Cl)c1OC (racemic) [[^11C]raclopride] |  |  |  |  |  |  |  |  |  |  |  |  |  |  |  | Kd (dopamine D2/D3 receptors; read-out: affinity (Kd) by equilibrium analysis): 10 nM; Kd (dopamine D2/D3 receptors; read-out: equilibrium dissociation constant KdVR by compartmental modeling): 6.2 nM |
| CCNC(=O)[C@H]1O[C@@H](n2cnc3c(N)nc(NCCc4ccc(CCC(=O)O)cc4)nc32)[C@H](O)[C@@H]1O [CGS21680] | reduces the affinity | 0.012 ± 0.006*** min^–1 | 0.034 ± 0.014*** min^–1 | 0.028 ± 0.012*** min^–1 | 0.029 ± 0.017*** min^–1 | 0.033 ± 0.013*** min^–1 | 0.87 ± 0.20 | 1.28 ± 0.35 | 1.19 ± 0.32 | 1.63 ± 3.6 | 0.015 ± 0.008*** min^–1 | 0.026 ± 0.009** min^–1 | 0.023 ± 0.010** min^–1 | 0.022 ± 0.021** min^–1 | 0.026 ± 0.009** min^–1 | heart rate, reduction in some animals down to [3]: 94 bpm; decrease of affinity of dopamine D2R for agonist L-(−)-[^3H]NPA (dopamine D2R): 40%; change of affinity of D2R to agonists (human D2R): two- to threefold decreased; change of D2R numbers (D2R [4]): without any change; change of affinity of D2R for dopamine (D2R [4]): three- to fourfold decrease; IC50 values of competition between [^125I]iodosulpiride and dopamine (D2R [5]): significant increase; IC50 values of competition between [^125I]iodosulpiride and dopamine (D2R [6]): significant increase; electrically evoked dopamine release (dopamine release [7]): inhibit; dopamine release in entire striatum and shell of nucleus accumbens (dopamine release [8]): increase |
| CCNC(=O)[C@H]1O[C@@H](n2cnc3c(N)ncnc32)[C@H](O)[C@@H]1O [NECA, 5’-N-ethylcarboxamide adenosine] |  |  |  |  |  |  |  |  |  |  |  |  |  |  |  | effect on heart rate, bolus of low doses [9]: tachycardia; effect on heart rate, high dose ([9]; total dose of 3 mg/kg infused over 60 min): rapid reduction in heart rate |
